Results on 4 compounds are retold here after patent publication US9988407B2, “Prodrugs of prostate specific membrane antigen (PSMA) inhibitor” (THE JOHNS HOPKINS UNIVERSITY, priority 2014, dated 2018).

Entries after “also recorded” stand apart in the source; their conditions may differ.

The nature of data set [1]: In vivo pharmacokinetics in mice, peroral, bioanalysis method 2 (2-PMPA release). The settings on record: mouse, in vivo. The method, then:
Blood was obtained via cardiac puncture and tissue dissected at 0 min, 15 min, 30 min, 1 h, 2 h, and 4 h post dose (n=3 per time point). Single time point studies were conducted at 30 min (N=3) following dosing. Plasma was harvested from blood by centrifugation. Mean concentration-time data was used for pharmacokinetic (PK) analysis. Non-compartmental-analysis module in WinNonlin® (version 5.3) was used to assess pharmacokinetic parameters. Peak plasma concentrations (Cmax) and time to Cmax (Tmax) were the observed values. Area under the curve (AUC) was calculated by log-linear (p.o.) trapezoidal rule to the end of sample collection (AUClast) and extrapolated to infinity (AUC0-∞) by dividing the last quantifiable concentration by the terminal disposition rate constant (ke). […] The tissues were stored in −20° C. for 1 h and then homogenized. The calibration curve for the tissues was developed using naïve mouse brains from untreated animals as a matrix. For sciatic nerve, the nerves were weighed and homogenized in 50 μL methanol and the calibration curve was developed using naïve sciatic nerves from untreated animals as a matrix. The samples were vortexed and centrifuged. […] Supernatant was dried under a gentle stream of nitrogen at 45° C. and the residue reconstituted with 75 μL of acetonitrile and vortexed. 25 μL of derivatizing agent N-tert-Butyldimethysilyl-N-methyltrifluoro-acetamide (MTBSTFA) was added to microcentrifuge tubes, vortexed, and heated at ˜60 OC for 40 min. At the end of 40 min, the derivatized samples ˜75 μL were transferred to a 250 μL polypropylene vials and were analyzed via LC/MS/MS. Chromatographic analysis was performed using an Accela™ ultra high-performance system consisting of an analytical pump, and an autosampler coupled with TSQ Vantage mass spectrometer (Thermo Fisher Scientific Inc., Waltham Mass.). […] The total run time for each analyte was 5.0 min. Chromatographic analysis will be performed on Accela UPLC.

Data set [2] in a line: Metabolic stability in human plasma. The settings on record: 10 μM, 37° C. Type of data set: in vitro ADME. On the procedure:
(§1) For metabolic stability, plasma (mouse, dog, monkey and human) and liver microsomes (mouse, dog, monkey and human) were used. For stability, prodrugs (10 μM) were spiked in each matrix and incubated in an orbital shaker at 37° C. At predetermined times (0, 30 and 60 min), 100 μL aliquots of the mixture in triplicate were removed and the reaction quenched by addition of three times the volume of ice cold acetonitrile spiked with the internal standard (losartan 5 μM). The samples were vortexed for 30 s and centrifuged 12000 g for 10 min. 50 μL supernatant diluted with 50 μL water was transferred to a 250 μL polypropylene vial sealed with a Teflon cap. Prodrug disappearance was monitored over time using a liquid chromatography and tandem mass spectrometry (LC/MS/MS) method as described below.
(§2) For LC/MS/MS, prodrugs were separated with Thermo Scientific Accela UPLC system coupled to Accela open autosampler on an Agilent C18 (100×2.1 mm id) UPLC column. The autosampler was temperature controlled and operating at 10° C. The mobile phase used for the chromatographic separation was composed of acetonitrile/water containing 0.1% formic acid and was run at a flow rate of 0.5 mL/minute for 4.5 minutes using gradient elution. The column effluent was monitored using TSQ Vantage triple-quadrupole mass spectrometric detector, equipped with an electrospray probe set in the positive ionization mode. Samples were introduced into the ionization source through a heated nebulized probe (350° C.).
(§3) For quantification of compound remaining, disappearance of prodrugs was measured from ratio of peak areas of analyte to IS. Percentage remaining was calculated in the following manner: […]

Data set [3] can be described thus: In vitro metabolic stability screen in plasma and liver subcellular fractions (results in words). The format is in vitro ADME. The settings on record: 60 min incubation. The method, then:
as §1, §2
For quantification of compound remaining, disappearance of prodrugs was measured from ratio of peak areas of analyte to IS. Percentage remaining was calculated in the following manner:
In general, the prodrugs were screened by an in vitro metabolic stability screen, and if positive, followed by an in vivo single time point pharmacokinetic study, and in select cases, an in vivo full time course pharmacokinetic study (FIG. 3). In this Example, the four acidic functional groups in 2-PMPA were systematically capped. The carboxylic acids were first masked with simple alkyl esters (Compounds 1, 2, and 3). In vitro chemical and metabolic stability of the prodrugs then were conducted, following 60 min incubation in plasma stability screens for prodrugs.

Data set [4] in a line: Metabolic stability in mouse plasma. The format is in vitro ADME. The following applies: 10 μM, 37° C. The method, then:
as §1, §2, §3

The nature of data set [5]: Metabolic stability in mouse liver microsomes. Type of data set: in vitro ADME. The settings on record: 10 μM, 37° C. On the procedure: as §1, §2, §3
In general terms: Microsomes from liver hold many membrane-bound enzymes, among them those of drug oxidation.

A short description of data set [6]: Chemical stability in HBSS buffer (pH 7.4) / simulated gastric fluid. The format is physicochemical. The settings on record: HBSS, 10 μM, 37° C. On the procedure: The chemical stability of prodrugs was evaluated using simulated gastric fluid (pH 1.2) and Hanks' Balanced Salt Solution (HBSS) buffer (pH 7.4). Briefly, prodrugs were spiked (10 μM) in respective solutions and incubated at 37° C. for 1 h. At predetermined time points (0, 30 and 60 min), aliquots of 100 μL were removed and diluted with 100 μL of water. Prodrug disappearance was monitored using the developed liquid chromatography and tandem mass spectrometry (LC/MS/MS) method described below.
as §2, §3

Data set [7] is described as follows: Metabolic stability in mouse liver S9. The format is in vitro ADME. The following applies: Mouse S9, 10 μM, 37° C.
Data set [8] in a line: Metabolic stability in human liver microsomes. Type of data set: in vitro ADME. The settings on record: 10 μM, 37° C. The method, then: as §1, §2, §3
Data set [9] is described as follows: In vivo pharmacokinetics in mice, peroral, bioanalysis method 1 (total prodrug exposure). The following applies: mice, oral dosing. On the procedure:
Blood was obtained via cardiac puncture and tissue dissected at 0 min, 15 min, 30 min, 1 h, 2 h, and 4 h post dose (n=3 per time point). Single time point studies were conducted at 30 min (N=3) following dosing. Plasma was harvested from blood by centrifugation. Mean concentration-time data was used for pharmacokinetic (PK) analysis. Non-compartmental-analysis module in WinNonlin® (version 5.3) was used to assess pharmacokinetic parameters. Peak plasma concentrations (Cmax) and time to Cmax (Tmax) were the observed values. Area under the curve (AUC) was calculated by log-linear (p.o.) trapezoidal rule to the end of sample collection (AUClast) and extrapolated to infinity (AUC0-∞) by dividing the last quantifiable concentration by the terminal disposition rate constant (ke). Terminal half-life (t1/2) was estimated from first order kinetics: t1/2=0.693/ke.
Briefly, prior to extraction, frozen samples were thawed on ice. For plasma extraction, 50 μL of the calibration standards or samples were transferred into silanized microcentrifuge tubes. Sample preparation involved a single liquid extraction by addition of 300 μL of methanol as extraction solution with internal standard (i.e., 5 μM of 2-PMSA in methanol), followed by vortexing for 30 s and then centrifugation at 12000 g for 10 min. Supernatant was transferred (˜250 μL) and evaporated to dryness at 40° C. under a gentle stream of nitrogen. The residue was reconstituted with 100 μL of derivatizing agent, n-butanol with 3N HCl, and samples were vortexed. The samples were heated at ˜60 OC in a shaking water bath for 30 min. At the end of 30 min, the derivatized samples were allowed to cool at room temperature and dried again for removal of derivatizing reagent, under a gentle stream of nitrogen. The residue was reconstituted in 100 μL of 30% acetonitrile in water v/v. The samples were vortexed and centrifuged again. ˜80 μL supernatant was transferred to a 250 μL polypropylene vial sealed with a Teflon cap and a volume of 10 μL was injected onto the ultra-performance liquid chromatography (UPLC) instrument for quantitative analysis. Chromatographic analysis was performed using an Accela™ ultra high-performance system consisting of an analytical pump, and an autosampler coupled with TSQ Vantage mass spectrometer (Thermo Fisher Scientific Inc., Waltham Mass.). […] The mobile phase used was composed of 0.1% formic acid in acetonitrile and 0.1% formic acid in H2O with gradient elution, starting with 20% (organic) linearly increasing to 65% up to 2.5 min, maintaining at 65% (2.5-3.5 min) and reequilibrating to 30% by 5 min. The total run time for each analyte was 5.0 min.

Data set [10] is described as follows: PK of JAM0388 after oral gavage, 2-PMPA in brain and plasma. Type of data set: in vivo. The following applies: 30 mg/kg equivalent of 2-PMPA by oral gavage.

Turning to `COC(=O)CCC(CP(=O)(O)O)C(=O)OC` (centres unmarked) [Compound 1, [5-(Methyloxy)-2-(methoxycarbonyl)-5-oxopentyl]phosphonic acid], in data set [1], the “stability of carboxylic esters in vivo” value is on record as “too stable in vivo”. In addition, the Percentage remaining in data set [2] (0 min) was found to be 100%; in data set [2] (30 min), 100%; in data set [2] (60 min), 86%; in data set [4] (0 min) it was 100%; in data set [4] (30 min), 102%; in data set [4] (60 min), 101%. Further, the Percentage remaining is given as 100% in data set [5] (0 min); 102% in [5] (30 min); 103% in data set [5] (60 min); 100% in data set [6] (0 min); 92% in [6] (30 min); 94% in [6] (60 min). The Percentage remaining in data set [7] (0 min) is listed as 100%; in [7] (30 min), 101%; in [7] (60 min) it was 86%; in [8] (0 min), 100%; in data set [8] (30 min), 90%; in [8] (60 min) it was 96%. For the same compound, the “in vitro metabolic stability” value is “too stable; also recorded: stable in plasma” in data set [3] and “too stable” in data set [3] (listed as JHU 2106).

Regarding `CCOC(=O)CCC(CP(=O)(O)O)C(=O)OCC` (centres unmarked) [Compound 2, [5-Ethoxy-2-(ethoxycarbonyl)-5-oxopentyl]phosphonic acid], the “stability of carboxylic esters in vivo” value in data set [1] is reported as “too stable in vivo”. Moreover, the Percentage remaining in data set [2] (0 min) was found to be 100%; in data set [2] (30 min), 81%; in [2] (60 min), 59%; in data set [4] (0 min), 100%; in [4] (30 min), 99%; in data set [4] (60 min), 83%. In addition, the Percentage remaining is 100% in data set [5] (0 min); 99% in data set [5] (30 min); 88% in data set [5] (60 min); 100% in data set [7] (0 min); 103% in data set [7] (30 min); 103% in [7] (60 min). The Percentage remaining in [8] (0 min) is listed as 100%; in data set [8] (30 min) it was 88%; in [8] (60 min), 73%. Besides, the “in vitro metabolic stability” value in data set [3] was “too stable”. The “permeability in vivo” value in [9] is on record as “showed the most permeability”.

With `CCCOC(=O)CCC(CP(=O)(O)O)C(=O)OCCC` (centres unmarked) [Compound 3, [5-Oxo-5-propoxy-2-(propoxycarbonyl)pentyl]phosphonic acid], the “stability of carboxylic esters in vivo” value in data set [1] is “too stable in vivo”. Also, in data set [3], the “in vitro metabolic stability” value is recorded as “too stable”. The “permeability in vivo” value in data set [9] is on record as “then the propyl ester”.

Consider “4-((diphenoxyphosphoryl)methyl)-5-(((isopropoxycarbonyl)oxy)methoxy)-5-oxopentanoic acid [Compound 30]”, for which the “brain levels of 2-PMPA” value in [10] (brain at 30 min and 5 h) is “low at both time points”. The “release of 2-PMPA in plasma” value in data set [10] (plasma at 30 min and 5 h) is “excellent release of 2-PMPA in plasma”.
